Measured values reported in patent US11566007B2, “Ras inhibitors” (Revolution Medicines, Inc., priority 2019, dated 2023).

Experiments:
NCI-H358 (K-Ras G12C) = experiment: CellTiter-Glo cell viability assay, NCI-H358; format: cell-based, human; conditions: Homo sapiens, NCI-H358, 120 h, NCI-H358, 5-day treatment; class symbols; read-out: Additional H358 Cell Viability assay data (K-Ras G12C, IC50)
Method in brief: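 Viability of K-Ras mutant lines is measured by ATP luminescence after five days of compound treatment. Percent of DMSO control is calculated and dose-response data are fitted with a four-parameter logistic equation.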

KRAS G12D = KRAS G12D (Homo sapiens (Human), UniProt P01116+P62937, G12D); experiment: Ras-Raf (BRAF RBD) disruption / FRET / MOA assay, KRAS G12D; format: biochemical; conditions: Ras-Raf disruption/FRET/MOA assay; class symbols; read-out: KRAS G12D FRET data IC50
Method in brief: (§1)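 Ras:RAF disruption was scored as a fall in TR-FRET ratio relative to DMSO. Compound ranged in 3-fold steps over 10 points from 30 μM final; incubation ran 3 h at 25° C, detection antibodies a further 1.5 h. Reported as IC50.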

NRAS G12C = NRAS G12C (Homo sapiens (Human), UniProt P01111+P62937, G12C); experiment: Ras-Raf (BRAF RBD) disruption / FRET / MOA assay, NRAS G12C; format: biochemical; conditions: read-out: IC50* NRAS G12C FRET data
Method in brief: as §1

K-Ras G13C = K-Ras G13C (Homo sapiens (Human), UniProt P01116+P62937, G13C); experiment: Ras-Raf (BRAF RBD) disruption / FRET / MOA assay, KRAS G13C; format: biochemical; conditions: KRAS G13C; Ras-Raf disruption/FRET/MOA assay; read-out: IC50* KRAS G13C FRET data
Method in brief: as §1

[1] = system: NCI-H358 cells (K-Ras G12C); experiment: Potency assay: pERK in NCI-H358 cells; format: cell-based, human; conditions: Homo sapiens, NCI-H358; H358 KRAS G12C; read-out: pERK EC50
Method in brief: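 4 h cpd, 37 °C; 10-pt 3-fold series, 10 mM DMSO top stock, duplicates. Readout pERK: AlphaLISA SureFire Ultra or In-Cell Western (IR-800CW secondary, DRAQ5 DNA stain). IC50, 4-PL fit vs log conc.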

KRAS G12V = KRAS G12V (Homo sapiens (Human), UniProt P01116+P62937, G12V); experiment: Ras-Raf (BRAF RBD) disruption / FRET / MOA assay, KRAS G12V; format: biochemical; conditions: read-out: IC50* KRAS G12V FRET data
Method in brief: as §1

KRAS G12S = KRAS G12S (Homo sapiens (Human), UniProt P01116+P62937, G12S); experiment: Ras-Raf (BRAF RBD) disruption / FRET / MOA assay, KRAS G12S; format: biochemical; conditions: Ras-Raf disruption/FRET/MOA assay; class symbols; read-out: KRAS G12S FRET data IC50
Method in brief: as §1

KRAS WT = KRAS WT (Homo sapiens (Human), UniProt P01116+P62937); experiment: Ras-Raf (BRAF RBD) disruption / FRET / MOA assay, KRAS WT; format: biochemical; conditions: read-out: IC50* KRAS WT FRET data
Method in brief: as §1

K-Ras G12C = K-Ras G12C (Homo sapiens (Human), UniProt P01116+P62937, G12C); experiment: Ras-Raf (BRAF RBD) disruption / FRET / MOA assay, KRAS G12C; format: biochemical; conditions: KRAS G12C; Ras-Raf disruption/FRET/MOA assay; read-out: IC50* KRAS G12C FRET data
Method in brief: as §1

KRAS G13D = KRAS G13D (Homo sapiens (Human), UniProt P01116+P62937, G13D); experiment: Ras-Raf (BRAF RBD) disruption / FRET / MOA assay, KRAS G13D; format: biochemical; conditions: read-out: IC50* KRAS G13D FRET data
Method in brief: as §1

K-Ras G12C, sequence (P01116-2 other isoform, or with tags, fused parts or gaps G12C): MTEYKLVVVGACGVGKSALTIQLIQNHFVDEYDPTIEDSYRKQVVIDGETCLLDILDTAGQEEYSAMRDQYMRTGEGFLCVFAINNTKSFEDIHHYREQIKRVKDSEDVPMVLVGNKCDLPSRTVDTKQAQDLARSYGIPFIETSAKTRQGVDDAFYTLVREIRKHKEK
K-Ras G12C, sequence (P62937 whole entry): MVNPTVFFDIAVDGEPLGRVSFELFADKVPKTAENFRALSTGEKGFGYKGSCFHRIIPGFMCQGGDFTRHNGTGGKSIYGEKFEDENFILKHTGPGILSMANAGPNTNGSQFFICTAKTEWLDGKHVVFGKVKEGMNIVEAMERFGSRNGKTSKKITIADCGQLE
KRAS G12V, sequence (P01116-2 other isoform, or with tags, fused parts or gaps G12V): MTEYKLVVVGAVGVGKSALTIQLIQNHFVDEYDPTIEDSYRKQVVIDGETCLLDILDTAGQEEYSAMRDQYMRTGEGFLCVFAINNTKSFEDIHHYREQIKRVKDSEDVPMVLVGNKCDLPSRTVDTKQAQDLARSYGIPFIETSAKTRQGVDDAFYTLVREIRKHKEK
KRAS G12V, sequence (P62937 whole entry): as the sequence (P62937 whole entry) above
KRAS G13D, sequence (P01116-2 other isoform, or with tags, fused parts or gaps G13D): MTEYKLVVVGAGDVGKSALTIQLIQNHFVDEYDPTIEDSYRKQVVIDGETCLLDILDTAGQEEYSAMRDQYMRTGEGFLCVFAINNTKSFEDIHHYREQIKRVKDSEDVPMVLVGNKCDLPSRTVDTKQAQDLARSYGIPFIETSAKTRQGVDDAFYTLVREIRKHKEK
KRAS G13D, sequence (P62937 whole entry): as the sequence (P62937 whole entry) above
K-Ras G13C, sequence (P01116-2 other isoform, or with tags, fused parts or gaps G13C): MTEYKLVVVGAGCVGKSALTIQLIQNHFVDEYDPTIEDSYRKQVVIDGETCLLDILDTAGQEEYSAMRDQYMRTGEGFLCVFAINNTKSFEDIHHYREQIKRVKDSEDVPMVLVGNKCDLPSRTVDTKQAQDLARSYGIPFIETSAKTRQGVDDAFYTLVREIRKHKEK
K-Ras G13C, sequence (P62937 whole entry): as the sequence (P62937 whole entry) above
NRAS G12C, sequence (P01111 whole entry G12C): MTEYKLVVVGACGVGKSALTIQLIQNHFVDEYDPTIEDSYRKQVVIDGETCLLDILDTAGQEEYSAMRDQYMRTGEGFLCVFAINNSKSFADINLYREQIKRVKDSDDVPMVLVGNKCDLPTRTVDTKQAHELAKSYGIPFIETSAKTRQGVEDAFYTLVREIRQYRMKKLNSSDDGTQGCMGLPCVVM
NRAS G12C, sequence (P62937 whole entry): as the sequence (P62937 whole entry) above
KRAS WT, sequence (P01116-2 other isoform, or with tags, fused parts or gaps): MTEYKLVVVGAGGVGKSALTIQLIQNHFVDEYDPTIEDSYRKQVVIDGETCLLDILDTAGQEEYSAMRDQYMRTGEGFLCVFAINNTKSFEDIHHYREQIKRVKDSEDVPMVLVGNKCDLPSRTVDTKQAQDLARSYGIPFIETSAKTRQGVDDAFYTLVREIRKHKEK
KRAS WT, sequence (P62937 whole entry): as the sequence (P62937 whole entry) above
KRAS G12D, sequence (P01116-2 other isoform, or with tags, fused parts or gaps G12D): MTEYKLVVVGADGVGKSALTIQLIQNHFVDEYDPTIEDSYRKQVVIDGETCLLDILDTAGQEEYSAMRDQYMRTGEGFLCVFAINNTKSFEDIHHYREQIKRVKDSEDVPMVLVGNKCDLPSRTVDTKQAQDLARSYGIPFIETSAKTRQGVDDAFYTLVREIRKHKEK
KRAS G12D, sequence (P62937 whole entry): as the sequence (P62937 whole entry) above
KRAS G12S, sequence (P01116-2 other isoform, or with tags, fused parts or gaps G12S): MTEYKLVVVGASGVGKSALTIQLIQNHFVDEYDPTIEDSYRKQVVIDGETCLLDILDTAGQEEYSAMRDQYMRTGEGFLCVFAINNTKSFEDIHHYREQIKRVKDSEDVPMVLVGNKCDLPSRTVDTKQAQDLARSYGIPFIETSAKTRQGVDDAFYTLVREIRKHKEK
KRAS G12S, sequence (P62937 whole entry): as the sequence (P62937 whole entry) above

| Compound | IC50 (NCI-H358 (K-Ras G12C)) | IC50 (KRAS G12D) | IC50 (NRAS G12C) | IC50 (K-Ras G13C) | EC50 [1] | IC50 (KRAS G12V) | IC50 (KRAS G12S) | IC50 (KRAS WT) | IC50 (K-Ras G12C) | IC50 (KRAS G13D) |
| --- | --- | --- | --- | --- | --- | --- | --- | --- | --- | --- |
| C=CC(=O)N1C[C@H](C)N(C(=O)N(C)[C@H](C(=O)N[C@H]2Cc3nc(cs3)-c3ccc4c(c3)c(c(-c3cccnc3[C@H](C)OC)n4CC)CC(C)(C)COC(=O)[C@@H]3CCCN(N3)C2=O)C(C)C)C[C@H]1C (atropisomer, axis not shown) [Example A430] | 0.01 to 0.1 µM | 1 to 10 µM | 0.1 to 1 µM | 0.1 to 1 µM | < 5 µM | 1 to 10 µM | 0.1 to 1 µM | 0.1 to 1 µM | 0.1 to 1 µM | 1 to 10 µM |
| C=CC(=O)N1CC2(C1)CN(C(=O)N(C)[C@H](C(=O)N[C@H]1Cc3nc(cs3)-c3ccc4c(c3)c(c(-c3cccnc3[C@H](C)OC)n4CC)CC(C)(C)COC(=O)[C@@H]3CCCN(N3)C1=O)C(C)C)CCO2 (atropisomer, axis not shown) [Example A431] | 0.01 to 0.1 µM | 1 to 10 µM | 0.1 to 1 µM | 0.1 to 1 µM | < 5 µM | 0.1 to 1 µM | 0.1 to 1 µM | 0.1 to 1 µM | 0.1 to 1 µM | 1 to 10 µM |
| C=CC(=O)N1CCN(C(=O)N(C)[C@H](C(=O)N[C@H]2Cc3nc(cs3)-c3ccc4c(c3)c(c(-c3cccnc3[C@H](C)OC)n4CC)CC(C)(C)COC(=O)[C@@H]3CCCN(N3)C2=O)C(C)C)C[C@H]1C (atropisomer, axis not shown) [Example A432] | 0.01 to 0.1 µM | 0.1 to 1 µM | 0.01 to 0.1 µM | 0.01 to 0.1 µM | < 5 µM | 0.1 to 1 µM | 0.1 to 1 µM | 0.01 to 0.1 µM | 0.01 to 0.1 µM | 0.1 to 1 µM |
| C=CC(=O)N1CCN(C(=O)N(C)[C@H](C(=O)N[C@H]2Cc3nc(cs3)-c3ccc4c(c3)c(c(-c3cccnc3[C@H](C)OC)n4CC)CC(C)(C)COC(=O)[C@@H]3CCCN(N3)C2=O)C(C)C)C[C@@H]1C (atropisomer, axis not shown) [Example A433] | 0.01 to 0.1 µM | 0.1 to 1 µM | 0.01 to 0.1 µM | 0.01 to 0.1 µM | < 5 µM | 0.1 to 1 µM | 0.01 to 0.1 µM | 0.01 to 0.1 µM | 0.01 to 0.1 µM | 0.1 to 1 µM |
| C=CC(=O)N1CC(N(C)C(=O)N(C)[C@H](C(=O)N[C@H]2Cc3nc(cs3)-c3ccc4c(c3)c(c(-c3cccnc3[C@H](C)OC)n4CC)CC(C)(C)COC(=O)[C@@H]3CCCN(N3)C2=O)C(C)C)C1 (atropisomer, axis not shown) [Example A435] | < 0.01 µM | 1 to 10 µM | < 0.01 µM | 0.1 to 1 µM | < 5 µM | 0.1 to 1 µM | 0.1 to 1 µM | 0.1 to 1 µM | 0.01 to 0.1 µM | 1 to 10 µM |
| C=CC(=O)N1CCCN(C(=O)N(C)[C@H](C(=O)N[C@H]2Cc3nc(cs3)-c3ccc4c(c3)c(c(-c3cccnc3[C@H](C)OC)n4CC)CC(C)(C)COC(=O)[C@@H]3CCCN(N3)C2=O)C(C)C)CC1 (atropisomer, axis not shown) [Example A436] | 0.01 to 0.1 µM | 0.1 to 1 µM | 0.01 to 0.1 µM | 0.1 to 1 µM | < 5 µM | 0.1 to 1 µM | 0.1 to 1 µM | 0.01 to 0.1 µM | 0.01 to 0.1 µM | 0.1 to 1 µM |
| C=CC(=O)NCCN(C)C(=O)N(C)[C@H](C(=O)N[C@H]1Cc2nc(cs2)-c2ccc3c(c2)c(c(-c2cccnc2[C@H](C)OC)n3CC)CC(C)(C)COC(=O)[C@@H]2CCCN(N2)C1=O)C(C)C (atropisomer, axis not shown) [Example A438] | 0.01 to 0.1 µM | 1 to 10 µM | 0.01 to 0.1 µM | 0.01 to 0.1 µM | < 5 µM | 0.1 to 1 µM | 0.1 to 1 µM | 0.1 to 1 µM | 0.01 to 0.1 µM | 0.1 to 1 µM |
| CCn1c(-c2cccnc2[C@H](C)OC)c2c3cc(ccc31)-c1nc(cs1)C[C@H](NC(=O)[C@H](C1CCCC1)N(C)C(=O)[C@H]1CCN(C(=O)C#CC(C)(C)N3CCC3)C1)C(=O)N1CCC[C@H](N1)C(=O)OCC(C)(C)C2 (atropisomer, axis not shown) [Example A439] | < 0.01 µM | > 10 µM | 0.01 to 0.1 µM | 0.1 to 1 µM | < 5 µM | 1 to 10 µM | 1 to 10 µM | 1 to 10 µM | 0.01 to 0.1 µM | 1 to 10 µM |
| CCn1c(-c2cccnc2[C@H](C)OC)c2c3cc(ccc31)-c1nc(cs1)C[C@H](NC(=O)[C@H](C(C)C)N(C)C(=O)[C@H]1CCN(C(=O)C#CC(C)(C)N3CCC3)C1)C(=O)N1CCC[C@H](N1)C(=O)OCC(C)(C)C2 (atropisomer, axis not shown) [Example A440] | < 0.01 µM | 1 to 10 µM | 0.01 to 0.1 µM | 0.1 to 1 µM | < 5 µM | 1 to 10 µM | 1 to 10 µM | 1 to 10 µM | 0.01 to 0.1 µM | 1 to 10 µM |
| C=CC(=O)N1CC[C@H](C(=O)N(C)[C@H](C(=O)N[C@H]2Cc3cc(C(F)F)cc(n3)-c3ccc4c(c3)c(c(-c3cccnc3[C@H](C)OC)n4CC)CC(C)(C)COC(=O)[C@@H]3CCCN(N3)C2=O)C(C)C)C1 (atropisomer, axis not shown) [Example A441] | 0.01 to 0.1 µM | > 10 µM | 1 to 10 µM | 1 to 10 µM | < 5 µM | > 10 µM | > 10 µM | > 10 µM | 1 to 10 µM | > 10 µM |
| C=CC(=O)N1CC[C@](C#N)(C(=O)N(C)[C@H](C(=O)N[C@H]2Cc3cccc(c3)-c3ccc4c(c3)c(c(-c3cccnc3[C@H](C)OC)n4CC)CC(C)(C)COC(=O)[C@@H]3CCCN(N3)C2=O)C(C)C)C1 (atropisomer, axis not shown) [Example A443] | < 0.01 µM | 1 to 10 µM | 0.01 to 0.1 µM | 0.1 to 1 µM | < 5 µM | 0.1 to 1 µM | 0.1 to 1 µM | 1 to 10 µM | 0.01 to 0.1 µM | 1 to 10 µM |
| C=CC(=O)N1CC[C@@](C#N)(C(=O)N(C)[C@H](C(=O)N[C@H]2Cc3cccc(c3)-c3ccc4c(c3)c(c(-c3cccnc3[C@H](C)OC)n4CC)CC(C)(C)COC(=O)[C@@H]3CCCN(N3)C2=O)C(C)C)C1 (atropisomer, axis not shown) [Example A444] | < 0.01 µM | 1 to 10 µM | 0.01 to 0.1 µM | 0.1 to 1 µM | < 5 µM | 0.1 to 1 µM | 1 to 10 µM | 1 to 10 µM | 0.01 to 0.1 µM | 1 to 10 µM |
| C=CC(=O)N1CC(OC(=O)N(C)[C@H](C(=O)N[C@H]2Cc3cccc(c3)-c3ccc4c(c3)c(c(-c3cccnc3[C@H](C)OC)n4CC)CC(C)(C)COC(=O)[C@@H]3CCCN(N3)C2=O)C(C)C)C1 (atropisomer, axis not shown) [Example A445] | < 0.01 µM | > 10 µM | 0.01 to 0.1 µM | 0.1 to 1 µM | < 5 µM | 1 to 10 µM | 1 to 10 µM | 1 to 10 µM | 0.01 to 0.1 µM | 1 to 10 µM |
| C=CC(=O)N1CC[C@H](C(=O)N(C)[C@H](C(=O)N[C@H]2Cc3cccc(c3)-c3ccc4c(c3)c(c(-c3cc5c(nc3[C@H](C)OC)CN(C)CC5)n4CC)CC(C)(C)COC(=O)[C@@H]3CCCN(N3)C2=O)C(C)C)C1 (atropisomer, axis not shown) [Example A446] | < 0.01 µM | > 10 µM | 0.1 to 1 µM | 1 to 10 µM | < 5 µM | 1 to 10 µM | 1 to 10 µM | 1 to 10 µM | 0.1 to 1 µM | 1 to 10 µM |
| CCn1c(-c2cccnc2[C@H](C)OC)c2c3cc(ccc31)-c1cccc(c1)C[C@H](NC(=O)CCOC1CN(C(=O)C#CC(C)(C)N(C)C)C1)C(=O)N1CCC[C@H](N1)C(=O)OCC(C)(C)C2 (atropisomer, axis not shown) [Example A448] | 0.01 to 0.1 µM | > 10 µM | 0.01 to 0.1 µM | > 10 µM | < 5 µM | > 10 µM | > 10 µM | > 10 µM | 0.01 to 0.1 µM | > 10 µM |
